# According to US20230116972A1, “CD38 MODULATORS AND METHODS OF USE THEREOF” (Cytokinetics, Inc., priority 2021, published 2023):
# Key:
# mouse CD38 = target: T1, mouse CD38 (Mus musculus, UniProt P56528); assay: mouse recombinant CD38 enzyme assay (hydrolysis of NAD+); assay type: biochemical; conditions: read-out: mCD38 BioChem IC50
# T1 sequence (P56528 1-304): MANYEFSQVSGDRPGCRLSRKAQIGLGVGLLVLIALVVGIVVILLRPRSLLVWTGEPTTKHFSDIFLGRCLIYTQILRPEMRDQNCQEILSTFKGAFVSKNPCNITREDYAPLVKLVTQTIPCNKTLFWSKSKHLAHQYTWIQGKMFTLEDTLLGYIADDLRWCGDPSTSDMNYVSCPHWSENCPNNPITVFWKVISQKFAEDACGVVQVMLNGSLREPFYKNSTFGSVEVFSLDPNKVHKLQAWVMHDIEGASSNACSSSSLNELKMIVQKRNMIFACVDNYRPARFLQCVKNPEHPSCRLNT
# Description: (§1) Compounds described herein were assayed for their ability to inhibit the hydrolysis of NAD+ by the protein CD38. The human and mouse recombinant enzyme assays measure the inhibition of the enzyme activity by compounds using recombinant enzymes and substrates in a buffered cell-free system. The assay conditions closely mimic cellular environments. Dose responses were measured using an assay to detect the hydrolysis of NAD+. All experiments were performed in the 384-well format. […] Enzyme reactions were initiated with the addition of 10 μL of a solution containing NAD+ substrate. Subsequent detection of remaining NAD+ was determined by first converting NAD+ to NADH using alcohol dehydrogenase, then using the resulting NADH to reduce resazurine to the fluorescent product resorufin. […] Following an incubation of 60 min at ambient temperature, 10 μL of 120 mM ethanol+20 U/ml alcohol dehydrogenase+30 mM semicarbazide+0.03 mM CD38 inhibitor in 50 mM HEPES, pH 7.5, 0.2 mg/ml BSA, was added and incubated at ambient temperature for 15 min. Then 10 μl 0.32 mM NaOH was added to stop the ADH reaction (plates incubated at ambient temperature for 15 min), followed by 30 μL of 0.05 mM resazurine+1000 mU/ml Diaphorase in 200 mM Tris-HCl, pH 7.7 for 15 min at ambient temperature. The plates were read for fluorescence (Excitation/Emission=540 nm/590 nm) using an EnVision plate reader. […] Note that, in Table 4, the “Compound No” corresponds to the compound numbers in Table 1.
# human CD38 = target: T2, human CD38 (Homo sapiens, UniProt P28907); assay: human recombinant CD38 enzyme assay (hydrolysis of NAD+); assay type: biochemical; conditions: human recombinant CD38, 0.4 nM enzyme, 62.5 μM NAD+; read-out: hCD38 BioChem IC50
# T2 sequence (P28907 1-300): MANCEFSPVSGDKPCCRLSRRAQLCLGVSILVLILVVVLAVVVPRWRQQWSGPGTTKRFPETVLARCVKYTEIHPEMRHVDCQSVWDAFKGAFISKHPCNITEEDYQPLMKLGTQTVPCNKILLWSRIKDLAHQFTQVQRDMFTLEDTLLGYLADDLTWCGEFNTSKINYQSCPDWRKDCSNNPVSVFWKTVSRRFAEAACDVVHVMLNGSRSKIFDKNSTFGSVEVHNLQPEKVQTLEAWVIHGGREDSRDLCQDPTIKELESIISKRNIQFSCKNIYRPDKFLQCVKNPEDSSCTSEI
# Description: as §1
SMILES,IC50 (mouse CD38) [nM],IC50 (human CD38) [nM]
"O=C(NC1CCC(F)(F)CC1)c1cc(C2CCC2)nc(-n2ccnc2)n1 [Compound 185, 6-cyclobutyl-N-(4,4-difluorocyclohexyl)-2-(1H-imidazol-1-yl)pyrimidine-4-carboxamide]",14,30
"O=C(Nc1ccc(C(F)F)nc1)c1cc(C2CCC2)nc(-n2ccnc2)n1 [Compound 186, 6-cyclobutyl-N-(6-(difluoromethyl)pyridin-3-yl)-2-(1H-imidazol-1-yl)pyrimidine-4-carboxamide]",5,10
"CC(C)(C)c1cc(-n2ccnc2)nc(C(=O)Nc2ccc(C(F)F)nc2)n1 [Compound 188, 4-(tert-butyl)-N-(6-(difluoromethyl)pyridin-3-yl)-6-(1H-imidazol-1-yl)pyrimidine-2-carboxamide]",661,1970
"Cn1cncc1-c1cc(C(C)(C)C)nc(C(=O)Nc2ccc(C(F)(F)F)nc2)n1 [Compound 190, 4-(tert-butyl)-6-(1-methyl-1H-imidazol-5-yl)-N-(6-(trifluoromethyl)pyridin-3-yl)pyrimidine-2-carboxamide]",427,502
"COc1cc(-n2ccnc2)nc(C(=O)N[C@H]2CC[C@H](OC)CC2)n1 [Compound 208, 4-(1H-imidazol-1-yl)-6-methoxy-N-((1r,4r)-4-methoxycyclohexyl)pyrimidine-2-carboxamide]",531,961
"O=C(N[C@H]1C[C@@H](c2ccccc2)C1)c1nccc(-n2ccnc2)n1 [Compound 212, 4-(1H-imidazol-1-yl)-N-((1s,3s)-3-phenylcyclobutyl)pyrimidine-2-carboxamide]",105,833
"COCCO[C@H]1C[C@H](NC(=O)c2nccc(-c3cncn3C)n2)C1 [Compound 222, N-((1r,3r)-3-(2-methoxyethoxy)cyclobutyl)-4-(1-methyl-1H-imidazol-5-yl)pyrimidine-2-carboxamide]",203,933
"COCCO[C@H]1C[C@H](NC(=O)c2nccc(-n3ccnc3)n2)C1 [Compound 223, 4-(1H-imidazol-1-yl)-N-((1r,3r)-3-(2-methoxyethoxy)cyclobutyl)pyrimidine-2-carboxamide]",459,1630
"Cn1cncc1-c1ccnc(C(=O)N[C@H]2CC[C@@](O)(c3ccccc3)CC2)n1 [Compound 253, N-((1r,4r)-4-hydroxy-4-phenylcyclohexyl)-4-(1-methyl-1H-imidazol-5-yl)pyrimidine-2-carboxamide]",124,1700
"O=C(NC1CN(c2ccccc2)C1)c1nccc(-n2ccnc2)n1 [Compound 262, 4-(1H-imidazol-1-yl)-N-(1-phenylazetidin-3-yl)pyrimidine-2-carboxamide]",232,1840
"Cn1cncc1-c1ccnc(C(=O)N[C@H]2C[C@@H](c3ccnc(C(F)(F)F)c3)C2)n1 [Compound 266, 4-(1-methyl-1H-imidazol-5-yl)-N-((1s,3s)-3-(2-(trifluoromethyl)pyridin-4-yl)cyclobutyl)pyrimidine-2-carboxamide]",327,708
"O=C(N[C@H]1C[C@@H](c2ccnc(C(F)(F)F)c2)C1)c1nccc(-n2ccnc2)n1 [Compound 271, 4-(1H-imidazol-1-yl)-N-((1s,3s)-3-(2-(trifluoromethyl)pyridin-4-yl)cyclobutyl)pyrimidine-2-carboxamide]",415,2150
"O=C(N[C@H]1C[C@@H](c2ccc(C(F)(F)F)nc2)C1)c1nccc(-n2ccnc2)n1 [Compound 272, 4-(1H-imidazol-1-yl)-N-((1s,3s)-3-(6-(trifluoromethyl)pyridin-3-yl)cyclobutyl)pyrimidine-2-carboxamide]",224,1340
"Cn1cncc1-c1ccnc(C(=O)NC2CCC(C)(C)OC2)n1 (centres unmarked) [Compound 278, N-(6,6-dimethyltetrahydro-2H-pyran-3-yl)-4-(1-methyl-1H-imidazol-5-yl)pyrimidine-2-carboxamide]",67.9,490
"O=C(NC1CC2(COC2)C1)c1nccc(-n2ccnc2)n1 [Compound 290, 4-(1H-imidazol-1-yl)-N-(2-oxaspiro[3.3]heptan-6-yl)pyrimidine-2-carboxamide]",191,1220
"CO[C@H]1C[C@H](NC(=O)c2nccc(-c3cncn3C)n2)C1 [Compound 297, N-((1r,3r)-3-methoxycyclobutyl)-4-(1-methyl-1H-imidazol-5-yl)pyrimidine-2-carboxamide]",90.8,414
"CO[C@H]1CC[C@H](NC(=O)c2nc(-c3cncn3C)cnc2C)CC1 [Compound 298, N-((1r,4r)-4-methoxycyclohexyl)-3-methyl-6-(1-methyl-1H-imidazol-5-yl)pyrazine-2-carboxamide]",166,319
"CCO[C@H]1C[C@H](NC(=O)c2nccc(-n3ccnc3)n2)C1 [Compound 301, N-((1r,3r)-3-ethoxycyclobutyl)-4-(1H-imidazol-1-yl)pyrimidine-2-carboxamide]",199,621
"Cn1cncc1-c1ccnc(C(=O)N[C@@H]2CC[C@@H](O)C2)n1 [Compound 302, N-((1R,3R)-3-hydroxycyclopentyl)-4-(1-methyl-1H-imidazol-5-yl)pyrimidine-2-carboxamide]",118,369
"O=C(N[C@H]1CC[C@H](O)C1)c1nccc(-n2ccnc2)n1 [Compound 304, N-((1S,3S)-3-hydroxycyclopentyl)-4-(1H-imidazol-1-yl)pyrimidine-2-carboxamide]",244,1270
"Cn1cncc1-c1ccnc(C(=O)N[C@H]2CC[C@H](O)C2)n1 [Compound 305, N-((1S,3S)-3-hydroxycyclopentyl)-4-(1-methyl-1H-imidazol-5-yl)pyrimidine-2-carboxamide]",62.4,485
"Cn1cncc1-c1ccnc(C(=O)NC2CC3(COC3)C2)n1 [Compound 306, 4-(1-methyl-1H-imidazol-5-yl)-N-(2-oxaspiro[3.3]heptan-6-yl)pyrimidine-2-carboxamide]",81.7,357
"Cn1cncc1-c1ccnc(C(=O)N[C@H]2C[C@](O)(c3ccccc3)C2)n1 [Compound 310, N-((1s,3s)-3-hydroxy-3-phenylcyclobutyl)-4-(1-methyl-1H-imidazol-5-yl)pyrimidine-2-carboxamide]",105,354
"CO[C@H]1C[C@H](NC(=O)c2nccc(-n3ccnc3)n2)C1 [Compound 313, 4-(1H-imidazol-1-yl)-N-((1r,3r)-3-methoxycyclobutyl)pyrimidine-2-carboxamide]",198,761
"Cn1cncc1-c1ccnc(C(=O)N[C@H]2CC[C@H](OC(F)(F)F)CC2)n1 [Compound 317, 4-(1-methyl-1H-imidazol-5-yl)-N-((1r,4r)-4-(trifluoromethoxy)cyclohexyl)pyrimidine-2-carboxamide]",41.7,79.1
"CC(C)O[C@H]1C[C@H](NC(=O)c2nccc(-c3cncn3C)n2)C1 [Compound 320, N-((1r,3r)-3-isopropoxycyclobutyl)-4-(1-methyl-1H-imidazol-5-yl)pyrimidine-2-carboxamide]",218,949
"Cc1cnc(-c2cncn2C)nc1C(=O)N[C@H]1CC[C@H](O)CC1 [Compound 321, 5-Methyl-2-(3-methylimidazol-4-yl)-N-[(1r,4r)-4-hydroxycyclohexyl]pyrimidine-4-carboxamide]",32.2,133
"Cn1cncc1-c1nc(C(=O)N[C@H]2CC[C@H](OC(F)(F)F)CC2)cc(C2CCC(F)(F)CC2)n1 [Compound 322, 6-(4,4-difluorocyclohexyl)-2-(1-methyl-1H-imidazol-5-yl)-N-((1r,4r)-4-(trifluoromethoxy)cyclohexyl)pyrimidine-4-carboxamide]",6.9,41.8
